# Data as given in ChEMBL document CHEMBL1201862, “PubChem BioAssay data set” (2004).
# Calls of active or inactive are those of the source.
# Columns and labels:
# [1] = target: T1, Low molecular weight phosphotyrosine protein phosphatase (Homo sapiens, UniProt P24666); test: LMPTP phosphatase inhibitors, colorimetric pNPP readout, dose response, orthogonal assay, biochemical, absorbance, pNPP substrate, LMPTP-A isoform, set 2 (AID 743308); format: functional
# T1 sequence (P24666 whole entry): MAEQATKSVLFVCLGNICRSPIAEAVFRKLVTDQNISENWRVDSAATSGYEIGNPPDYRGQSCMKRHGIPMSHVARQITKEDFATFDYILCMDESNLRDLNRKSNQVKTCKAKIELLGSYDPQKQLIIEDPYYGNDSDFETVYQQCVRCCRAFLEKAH
# [2] = target: T1, Low molecular weight phosphotyrosine protein phosphatase; test: LMPTP phosphatase inhibitors, dose response, biochemical, OMFP substrate, fluorescence intensity, set 2 (AID 743307); format: functional
# [3] = target: Voltage-gated inwardly rectifying potassium channel KCNH2 (Homo sapiens, UniProt Q12809); test: hERG protection from proarrhythmic block, potency, dose response, cell-based, thallium flux (AID 2121); format: ADME
# [4] = HEp-2 cell cytotoxicity, dose response, cytotoxicity control for RSV inhibitor project, HTS (AID 2410); format: functional; details: human respiratory syncytial virus
# [5] = target: Heat shock protein HSP 90-alpha (Homo sapiens, UniProt P07900); test: Luminescence-based dose response biochemical high throughput screening assay for inhibitors of the Heat Shock Protein 90 (HSP90). [Related pubchem assays: 1831 (Summary AID.), 1846 (Confirmation screen.), 1789 (Primary screen.)]
# [6] = target: Muscarinic acetylcholine receptor M1 (Rattus norvegicus, UniProt P08482); test: rat M1 positive allosteric modulator potency, dose response, cell-based, calcium mobilization, CHO-K1, ACh EC20 (AID 2425); format: functional
# [7] = target: Ubiquitin carboxyl-terminal hydrolase BAP1 (Homo sapiens, UniProt Q92560); test: BAP1 deubiquitinase inhibitors, dose response, biochemical (AID 714); format: functional
# [8] = target: E3 ubiquitin-protein ligase Mdm2 (Homo sapiens, UniProt Q00987); test: enhancers of MDM2-luciferase reporter signal, concentration-effect titration, project on inhibitors of MDM2 ubiquitin ligase, cellular assay, luminescent readout, 384-well plate format (AID 1394); format: functional;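 further: MDM2 E3 inhibitors raise luminescence so EC50 is for signal enhancement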
# [9] = target: Ephrin type-A receptor 4 (Mus musculus, UniProt Q03137); test: inhibitors of EphA4 binding to KYL peptide, primary screen, biochemical, colorimetric, mouse EphA4 (AID 689); format: functional
# [10] = inhibitors of Vif binding to APOBEC3G peptide, primary screen, biochemical, TR-FRET, GST-Vif 1-94, biotin-A3G peptide, dose response retest (AID 1117319); format: functional;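 further: TR-FRET signal of purified GST-Vif binding a biotinylated A3G peptide; inhibitors lower the FRET signal by blocking Vif and A3G binding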
# [11] = target: T2, Corticotropin-releasing factor receptor 2/Corticotropin-releasing factor-binding protein (Homo sapiens, UniProt P24387+Q13324); test: activators of CRF receptor 2 with binding protein – uHTS hits, confirmation (AID 602473); format: functional; details: read-out: EC50_Mean
# T2 sequence (Q13324 whole entry): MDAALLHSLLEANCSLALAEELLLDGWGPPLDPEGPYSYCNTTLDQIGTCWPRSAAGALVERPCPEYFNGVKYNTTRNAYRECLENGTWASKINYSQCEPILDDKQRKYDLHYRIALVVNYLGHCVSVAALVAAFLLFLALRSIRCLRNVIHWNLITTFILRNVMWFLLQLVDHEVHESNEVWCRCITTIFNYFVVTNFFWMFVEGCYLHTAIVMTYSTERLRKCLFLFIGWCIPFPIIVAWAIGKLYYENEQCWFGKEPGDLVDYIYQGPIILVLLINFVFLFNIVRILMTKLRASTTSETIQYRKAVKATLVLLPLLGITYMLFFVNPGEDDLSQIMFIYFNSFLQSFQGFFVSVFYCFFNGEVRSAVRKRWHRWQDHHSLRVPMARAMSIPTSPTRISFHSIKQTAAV
# T2 sequence (P24387 whole entry): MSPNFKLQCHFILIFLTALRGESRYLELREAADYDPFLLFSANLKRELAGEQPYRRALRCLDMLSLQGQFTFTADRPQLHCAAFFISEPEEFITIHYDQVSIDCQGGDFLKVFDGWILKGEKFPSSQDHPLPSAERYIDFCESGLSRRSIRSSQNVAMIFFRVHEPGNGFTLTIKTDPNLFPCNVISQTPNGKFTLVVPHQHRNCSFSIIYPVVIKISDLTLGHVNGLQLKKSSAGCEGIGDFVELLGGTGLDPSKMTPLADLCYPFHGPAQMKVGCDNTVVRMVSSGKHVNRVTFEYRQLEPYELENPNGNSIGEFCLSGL
# [12] = target: T2, Corticotropin-releasing factor receptor 2/Corticotropin-releasing factor-binding protein; test: Dose Response confirmation of uHTS hits for small molecule antagonists of the CRF-binding protein and CRF-R2 receptor complex.; format: functional; details: read-out: IC50_Mean
# [13] = Vero cell cytotoxicity, dose response, cytotoxicity control for Vif-APOBEC3G degradation inhibitor project, Vero cells (AID 1117358); format: functional; details: Human immunodeficiency virus 1, Vero
# [14] = target: T3, Fatty acid synthase (Homo sapiens, UniProt P49327); test: FAS thioesterase domain inhibitors, dose response, biochemical, kinetic fluorescence intensity (AID 624326); format: functional;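 further: rate of fluorescence rise from hydrolysis of a fluorogenic O-methyl fluorescein ester substrate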
# [15] = target: T4, Heat shock factor protein 1 (Mus musculus, UniProt P38532); test: HSF1 potentiators in luciferase reporter cells, confirmation, cell-based, NIH3T3, luminescence, dose retest (AID 435004); format: functional;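 further: stress induced by proteasome inhibitor MG132 added 30 min after compound; luciferase reporter driven by HSF1 response element in NIH3T3 cells; actives raise luminescence as potentiators of the MG132 stress response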
# T4 sequence (P38532 whole entry): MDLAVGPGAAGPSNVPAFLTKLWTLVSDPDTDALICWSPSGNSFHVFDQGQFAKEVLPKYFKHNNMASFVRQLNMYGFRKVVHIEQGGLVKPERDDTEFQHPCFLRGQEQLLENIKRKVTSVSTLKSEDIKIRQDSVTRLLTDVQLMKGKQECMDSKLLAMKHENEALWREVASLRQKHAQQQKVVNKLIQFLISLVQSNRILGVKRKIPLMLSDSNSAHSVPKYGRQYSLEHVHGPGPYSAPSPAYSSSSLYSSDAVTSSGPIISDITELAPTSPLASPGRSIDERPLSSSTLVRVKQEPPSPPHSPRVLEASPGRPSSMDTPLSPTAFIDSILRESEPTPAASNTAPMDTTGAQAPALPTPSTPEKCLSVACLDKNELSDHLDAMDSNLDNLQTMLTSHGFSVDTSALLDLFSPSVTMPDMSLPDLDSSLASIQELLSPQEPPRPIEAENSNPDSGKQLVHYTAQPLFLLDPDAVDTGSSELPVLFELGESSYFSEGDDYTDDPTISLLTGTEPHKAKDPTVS
# [16] = target: T3, Fatty acid synthase; test: FAS thioesterase domain inhibitors, dose response, biochemical, endpoint fluorescence intensity, uHTS hits (AID 624327); format: functional;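 further: fluorescence from hydrolysis of an O-methyl fluorescein acyl ester substrate by the enzyme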
# [17] = Jurkat T cell cytotoxicity, dose response, cytotoxicity control for P. falciparum gametocyte viability project, luminescence (AID 1117277); format: functional, cell-based;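 further: potency reflects loss of cellular ATP meaning fewer viable cells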
# [18] = P. falciparum late gametocyte killing, dose response, luminescence (AID 1117278); format: functional, cell-based;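 further: gametocytes exposed to compound for 24 hours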
# T3 sequence (P49327 whole entry, the tested form may be a part): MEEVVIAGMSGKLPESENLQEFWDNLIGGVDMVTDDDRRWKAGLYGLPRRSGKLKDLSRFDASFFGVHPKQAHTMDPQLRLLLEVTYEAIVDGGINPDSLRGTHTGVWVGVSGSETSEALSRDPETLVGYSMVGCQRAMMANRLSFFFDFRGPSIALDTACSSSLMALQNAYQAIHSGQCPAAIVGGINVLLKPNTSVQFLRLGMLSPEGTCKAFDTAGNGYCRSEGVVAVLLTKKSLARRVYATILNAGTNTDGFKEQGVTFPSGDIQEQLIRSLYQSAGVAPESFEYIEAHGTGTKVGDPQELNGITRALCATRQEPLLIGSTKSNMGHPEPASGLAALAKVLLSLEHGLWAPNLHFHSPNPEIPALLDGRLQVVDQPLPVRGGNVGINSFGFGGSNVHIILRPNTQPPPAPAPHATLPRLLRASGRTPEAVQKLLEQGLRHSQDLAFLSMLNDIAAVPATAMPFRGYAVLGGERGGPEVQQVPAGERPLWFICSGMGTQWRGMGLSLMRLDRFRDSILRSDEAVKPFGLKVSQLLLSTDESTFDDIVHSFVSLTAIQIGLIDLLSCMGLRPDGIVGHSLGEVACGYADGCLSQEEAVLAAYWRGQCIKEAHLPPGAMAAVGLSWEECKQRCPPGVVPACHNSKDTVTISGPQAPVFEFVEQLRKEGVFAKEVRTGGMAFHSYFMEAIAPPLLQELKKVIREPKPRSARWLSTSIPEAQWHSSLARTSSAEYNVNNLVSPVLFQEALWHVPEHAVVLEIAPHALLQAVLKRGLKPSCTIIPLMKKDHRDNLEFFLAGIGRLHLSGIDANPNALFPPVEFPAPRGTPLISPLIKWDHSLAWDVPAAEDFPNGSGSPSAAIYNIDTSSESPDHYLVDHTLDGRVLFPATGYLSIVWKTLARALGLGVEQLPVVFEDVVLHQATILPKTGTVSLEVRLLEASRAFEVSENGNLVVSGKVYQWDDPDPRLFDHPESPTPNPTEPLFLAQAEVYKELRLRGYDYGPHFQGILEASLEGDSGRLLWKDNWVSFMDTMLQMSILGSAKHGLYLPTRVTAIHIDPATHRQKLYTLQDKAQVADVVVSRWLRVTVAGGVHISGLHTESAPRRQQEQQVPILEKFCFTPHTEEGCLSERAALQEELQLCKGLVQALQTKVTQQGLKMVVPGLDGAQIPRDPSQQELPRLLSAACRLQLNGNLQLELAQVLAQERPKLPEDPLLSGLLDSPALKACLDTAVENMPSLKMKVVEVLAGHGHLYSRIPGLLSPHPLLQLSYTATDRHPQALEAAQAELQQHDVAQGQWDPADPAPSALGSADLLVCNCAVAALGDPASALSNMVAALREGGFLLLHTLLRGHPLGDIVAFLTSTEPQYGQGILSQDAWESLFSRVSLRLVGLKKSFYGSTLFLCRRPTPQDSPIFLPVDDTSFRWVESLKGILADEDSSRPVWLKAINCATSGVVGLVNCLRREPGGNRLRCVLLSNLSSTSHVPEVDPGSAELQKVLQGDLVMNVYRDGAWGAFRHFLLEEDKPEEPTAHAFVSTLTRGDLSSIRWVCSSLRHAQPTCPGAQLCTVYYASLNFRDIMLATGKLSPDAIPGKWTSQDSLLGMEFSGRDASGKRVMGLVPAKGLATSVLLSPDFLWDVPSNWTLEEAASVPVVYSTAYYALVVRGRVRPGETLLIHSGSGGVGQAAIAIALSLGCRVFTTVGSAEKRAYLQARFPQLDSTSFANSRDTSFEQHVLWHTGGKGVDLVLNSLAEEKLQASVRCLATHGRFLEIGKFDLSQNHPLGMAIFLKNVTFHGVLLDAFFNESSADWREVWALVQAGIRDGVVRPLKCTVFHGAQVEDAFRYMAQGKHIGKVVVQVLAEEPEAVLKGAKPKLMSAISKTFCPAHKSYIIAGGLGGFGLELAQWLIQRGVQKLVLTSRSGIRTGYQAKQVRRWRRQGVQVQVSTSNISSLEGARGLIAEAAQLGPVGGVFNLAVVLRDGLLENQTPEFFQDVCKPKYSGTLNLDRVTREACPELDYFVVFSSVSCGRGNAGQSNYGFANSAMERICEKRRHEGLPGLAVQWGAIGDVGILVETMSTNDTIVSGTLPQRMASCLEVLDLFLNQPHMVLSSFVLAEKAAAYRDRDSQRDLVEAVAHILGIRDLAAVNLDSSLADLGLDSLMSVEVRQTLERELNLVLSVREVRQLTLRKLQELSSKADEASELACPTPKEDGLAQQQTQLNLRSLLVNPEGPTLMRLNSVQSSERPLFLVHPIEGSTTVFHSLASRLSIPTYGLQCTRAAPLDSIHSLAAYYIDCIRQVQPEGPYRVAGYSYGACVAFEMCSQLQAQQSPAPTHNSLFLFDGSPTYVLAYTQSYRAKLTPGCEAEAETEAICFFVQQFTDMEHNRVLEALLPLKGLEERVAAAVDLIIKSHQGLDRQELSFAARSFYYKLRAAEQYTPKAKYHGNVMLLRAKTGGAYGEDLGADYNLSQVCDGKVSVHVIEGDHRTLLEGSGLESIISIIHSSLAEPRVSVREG
# Sequence of E3 ubiquitin-protein ligase Mdm2 (Q00987 whole entry): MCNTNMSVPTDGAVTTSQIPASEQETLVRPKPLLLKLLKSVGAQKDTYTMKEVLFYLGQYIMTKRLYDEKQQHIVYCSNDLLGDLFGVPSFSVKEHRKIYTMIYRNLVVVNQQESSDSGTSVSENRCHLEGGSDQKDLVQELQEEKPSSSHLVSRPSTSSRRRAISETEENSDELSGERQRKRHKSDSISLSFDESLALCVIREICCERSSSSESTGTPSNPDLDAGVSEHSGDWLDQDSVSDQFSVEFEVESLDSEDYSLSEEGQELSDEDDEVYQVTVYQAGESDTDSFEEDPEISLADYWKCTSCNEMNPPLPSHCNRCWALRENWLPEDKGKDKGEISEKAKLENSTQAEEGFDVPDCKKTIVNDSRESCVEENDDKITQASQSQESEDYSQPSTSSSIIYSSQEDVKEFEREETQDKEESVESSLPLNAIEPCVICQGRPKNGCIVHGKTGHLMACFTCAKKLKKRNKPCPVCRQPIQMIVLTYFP
# Sequence of Voltage-gated inwardly rectifying potassium channel KCNH2 (Q12809 whole entry): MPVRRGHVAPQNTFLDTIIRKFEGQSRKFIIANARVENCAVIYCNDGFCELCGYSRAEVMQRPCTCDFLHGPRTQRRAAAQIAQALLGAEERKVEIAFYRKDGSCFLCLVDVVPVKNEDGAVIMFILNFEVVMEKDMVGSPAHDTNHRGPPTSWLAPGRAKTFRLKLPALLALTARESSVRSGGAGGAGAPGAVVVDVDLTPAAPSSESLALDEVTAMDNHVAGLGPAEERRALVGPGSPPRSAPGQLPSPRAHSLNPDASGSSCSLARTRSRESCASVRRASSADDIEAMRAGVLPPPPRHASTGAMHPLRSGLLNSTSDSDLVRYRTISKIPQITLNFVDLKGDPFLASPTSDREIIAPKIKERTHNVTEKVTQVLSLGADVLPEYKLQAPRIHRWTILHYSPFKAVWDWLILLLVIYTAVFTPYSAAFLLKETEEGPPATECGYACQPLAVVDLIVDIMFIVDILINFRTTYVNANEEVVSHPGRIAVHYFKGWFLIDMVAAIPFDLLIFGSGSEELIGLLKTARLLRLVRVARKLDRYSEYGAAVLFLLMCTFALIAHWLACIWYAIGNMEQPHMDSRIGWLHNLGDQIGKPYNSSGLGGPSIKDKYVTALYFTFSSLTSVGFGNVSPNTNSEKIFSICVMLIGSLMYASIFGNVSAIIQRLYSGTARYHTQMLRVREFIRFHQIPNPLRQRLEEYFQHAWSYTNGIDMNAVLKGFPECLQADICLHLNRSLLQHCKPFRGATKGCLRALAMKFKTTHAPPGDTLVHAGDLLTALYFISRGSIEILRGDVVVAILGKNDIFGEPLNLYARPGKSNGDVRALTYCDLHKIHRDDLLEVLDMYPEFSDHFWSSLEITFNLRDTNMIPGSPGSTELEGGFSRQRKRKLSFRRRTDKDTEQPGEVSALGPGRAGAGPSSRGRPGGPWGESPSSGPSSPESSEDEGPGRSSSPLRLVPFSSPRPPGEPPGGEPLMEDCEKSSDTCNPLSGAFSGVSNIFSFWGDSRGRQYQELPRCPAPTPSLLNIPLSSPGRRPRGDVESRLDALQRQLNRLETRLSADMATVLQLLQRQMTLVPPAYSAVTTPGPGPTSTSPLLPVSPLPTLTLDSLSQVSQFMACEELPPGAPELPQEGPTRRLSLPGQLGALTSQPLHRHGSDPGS
# Sequence of Ephrin type-A receptor 4 (Q03137 whole entry): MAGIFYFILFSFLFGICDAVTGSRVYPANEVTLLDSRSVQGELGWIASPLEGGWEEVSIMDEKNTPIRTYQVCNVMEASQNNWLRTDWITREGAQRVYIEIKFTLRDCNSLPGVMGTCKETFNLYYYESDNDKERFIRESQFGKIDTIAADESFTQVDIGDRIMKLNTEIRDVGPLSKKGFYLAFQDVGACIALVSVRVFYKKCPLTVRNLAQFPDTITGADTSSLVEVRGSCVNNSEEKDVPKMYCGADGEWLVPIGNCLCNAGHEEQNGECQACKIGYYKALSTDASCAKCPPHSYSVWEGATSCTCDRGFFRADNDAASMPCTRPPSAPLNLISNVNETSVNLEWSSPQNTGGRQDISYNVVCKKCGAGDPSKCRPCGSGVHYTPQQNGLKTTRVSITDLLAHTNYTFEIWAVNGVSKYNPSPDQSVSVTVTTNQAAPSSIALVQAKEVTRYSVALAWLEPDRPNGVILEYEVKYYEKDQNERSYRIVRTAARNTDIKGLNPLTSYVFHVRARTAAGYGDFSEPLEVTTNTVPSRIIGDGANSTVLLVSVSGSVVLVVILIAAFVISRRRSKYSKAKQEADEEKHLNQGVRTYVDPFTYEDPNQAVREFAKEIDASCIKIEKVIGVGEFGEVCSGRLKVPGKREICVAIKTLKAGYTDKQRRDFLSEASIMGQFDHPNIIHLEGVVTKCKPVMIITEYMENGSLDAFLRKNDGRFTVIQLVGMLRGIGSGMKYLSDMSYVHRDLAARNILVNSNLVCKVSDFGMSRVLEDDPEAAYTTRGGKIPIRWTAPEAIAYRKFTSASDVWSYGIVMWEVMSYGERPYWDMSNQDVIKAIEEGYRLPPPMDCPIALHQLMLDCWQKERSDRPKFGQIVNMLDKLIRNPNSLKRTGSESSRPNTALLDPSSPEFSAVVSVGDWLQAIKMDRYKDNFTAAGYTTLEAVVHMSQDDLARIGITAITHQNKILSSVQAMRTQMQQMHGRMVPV
compound,measurement,setting,value
Brc1ccc2nc(-c3ccccc3)cc(NCCCN3CCCCC3)c2c1,IC50,[1],> 80 µM (inactive)
same,IC50,[2],> 80 µM (inactive)
Sc1ncnc2c1sc1nc(-c3ccccc3)c3c(c12)CCCC3,EC50,[3],1.69 µM (active)
same,CC50,[4],16.9 µM (active)
CN(C)c1ccc(C2Nc3cccc4cccc(c34)N2)cc1,IC50,[5],6.25 µM (active)
Cc1cc(NC(=O)CS(=O)(=O)c2cn(Cc3cccc(-c4ccn(C)n4)c3)c3ccccc23)no1,EC50,[6],3.45 µM (active)
Cc1sc(NC(=O)CSc2nnc(COc3ccc(Cl)cc3)n2C)c(C#N)c1C,IC50,[7],> 50 µM (not active)
Cn1cc/c(=N\C=C(C#N)C#N)c2ccccc21,EC50,[8],3.98 µM (not active)
CCOC(=O)N1CCN(C(=O)CSc2nnc(-c3c[nH]c4ccccc34)n2CCOC)CC1,IC50,[9],> 100 µM (not active)
CCc1ccccc1NC(=O)CC(O)(C(=O)OC)C(F)(F)F (stereo not drawn),IC50,[10],> 100 µM (active)
O=C1CSC(c2nn(-c3ccccc3)cc2-c2cc3ccccc3oc2=O)N1Cc1ccco1 (stereo not drawn),EC50,[11],> 53 µM (inactive)
same,IC50,[12],19.2 µM (active)
same,CC50,[13],> 40 µM (active)
Cc1cc2c(cc1C)C(c1cccc([N+](=O)[O-])c1)CC(=O)N2 (stereo not drawn),IC50,[14],7.33 µM (active)
same,EC50,[15],> 260 µM (inactive)
same,IC50,[16],5.61 µM (active)
same,IC50,[17],> 83.2 µM (inactive)
same,IC50,[18],> 109 µM (inactive)
